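Assay format: 96-well plates, 48-hour exposure. GI50: concentration for 50% inhibition of growth.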 Active and inactive are the calls of the source. Cut-off read from the data, not from the text of the source: active = GI50 up to about 1.1 µM and inactive = higher.
Legend:
Assay in all cases: inhibition of tumour cell growth, NCI panel, 48 h
786-0 = system: 786-0
CAKI-1 = system: CAKI-1
HCT-116 = system: HCT-116
HL-60 = system: HL-60
HT-29 = system: HT-29
KM12 = system: KM12
Malme-3M = system: Malme-3M
NCI-H460 = system: NCI-H460
OVCAR-3 = system: OVCAR-3
OVCAR-5 = system: OVCAR-5
RPMI-8226 = system: RPMI-8226
SF-539 = system: SF-539
SK-MEL-28 = system: SK-MEL-28
SN12C = system: SN12C
TK-10 = system: TK-10
UACC-257 = system: UACC-257
UO-31 = system: UO-31
RXF 393 = system: RXF 393
SNB-75 = system: SNB-75
UACC-62 = system: UACC-62

Measured: GI50

C=Cc1cnc([N+](=O)[O-])n1C
inactive: 786-0 > 100 µM | CAKI-1 42.5 µM | HCT-116 57.1 µM | HL-60 48.6 µM | HT-29 > 100 µM | KM12 36.2 µM | Malme-3M 38.1 µM | NCI-H460 56.8 µM | OVCAR-3 69.7 µM | OVCAR-5 > 100 µM | RPMI-8226 40.1 µM | SF-539 74.1 µM | SK-MEL-28 72.1 µM | SN12C > 100 µM | TK-10 36.1 µM | UACC-257 > 100 µM | UO-31 27.4 µM

CC(=O)OC1/C=C(\C)C(OC(C)=O)C/C=C(/C)CCC2C(/C=C/C1=O)C2(C)C (configuration not stated)
inactive: HCT-116 > 100 µM | HT-29 > 100 µM | KM12 > 100 µM | Malme-3M > 100 µM | NCI-H460 > 100 µM | OVCAR-3 > 100 µM | OVCAR-5 > 100 µM | RXF 393 79.4 µM | SF-539 > 100 µM | SK-MEL-28 > 100 µM | SN12C > 100 µM | SNB-75 31.2 µM | TK-10 64.7 µM | UACC-257 > 100 µM | UACC-62 > 100 µM | UO-31 67.5 µM

CCOC(=O)CC[C@H](NC(=O)c1nc[nH]c1/N=N/N(C)C)C(=O)OCC
inactive: 786-0 > 100 µM | CAKI-1 > 100 µM | HCT-116 > 100 µM | HL-60 > 100 µM | HT-29 > 100 µM | KM12 > 100 µM | Malme-3M > 100 µM | NCI-H460 > 100 µM | OVCAR-3 > 100 µM | RPMI-8226 > 100 µM | SF-539 > 100 µM | SK-MEL-28 > 100 µM | SN12C > 100 µM | UACC-257 > 100 µM | UACC-62 > 100 µM | UO-31 > 100 µM

CCCCc1c2cnccc2c(CCCC)c2c1[nH]c1ccccc12
inactive: 786-0 10 µM | CAKI-1 5.9 µM | HCT-116 3.59 µM | HT-29 9.91 µM | KM12 8.38 µM | Malme-3M 11.9 µM | NCI-H460 15.7 µM | OVCAR-3 5.26 µM | OVCAR-5 44.9 µM | RPMI-8226 2.9 µM | RXF 393 7.13 µM | SF-539 3.42 µM | SK-MEL-28 6.34 µM | SN12C 18 µM | SNB-75 5.87 µM | TK-10 19.2 µM | UACC-257 15.1 µM | UACC-62 11.6 µM | UO-31 10.4 µM

COc1ccc2c(OC)c3ccoc3nc2c1O
inactive: 786-0 > 100 µM | CAKI-1 93.3 µM | HCT-116 > 100 µM | HT-29 > 100 µM | KM12 > 100 µM | Malme-3M > 100 µM | NCI-H460 85.9 µM | OVCAR-3 > 100 µM | OVCAR-5 > 100 µM | RPMI-8226 33.7 µM | SF-539 > 100 µM | SK-MEL-28 > 100 µM | SN12C > 100 µM | SNB-75 86.9 µM | TK-10 > 100 µM | UACC-257 39.5 µM | UACC-62 77.8 µM | UO-31 63.1 µM

CC(=O)[C@@]1(c2ccccc2)CC2(CCN(C)CC2)O[C@H]1C
inactive: 786-0 > 100 µM | CAKI-1 > 100 µM | HCT-116 > 100 µM | HT-29 > 100 µM | KM12 > 100 µM | Malme-3M > 100 µM | NCI-H460 > 100 µM | OVCAR-3 > 100 µM | OVCAR-5 > 100 µM | RPMI-8226 > 100 µM | RXF 393 > 100 µM | SF-539 > 100 µM | SK-MEL-28 > 100 µM | SN12C > 100 µM | SNB-75 > 100 µM | TK-10 > 100 µM | UACC-257 > 100 µM | UO-31 > 100 µM

C[C@]12CC[C@H](OC3CCCCO3)CC1=CC[C@@H]1C2CC[C@]2(C)/C(=N/OCCC#N)CCC12 (some centres not stated)
inactive: 786-0 23.1 µM | CAKI-1 45.8 µM | HCT-116 5.73 µM | HT-29 2.17 µM | KM12 > 100 µM | Malme-3M > 100 µM | NCI-H460 15.2 µM | OVCAR-3 68.7 µM | RPMI-8226 > 100 µM | RXF 393 16 µM | SF-539 83.4 µM | SK-MEL-28 > 100 µM | SN12C 64.7 µM | SNB-75 20.3 µM | TK-10 24 µM | UACC-257 6.62 µM | UACC-62 97.1 µM | UO-31 47.8 µM

Source: ChEMBL document CHEMBL1201862, “PubChem BioAssay data set” (2004)
